Source: the supplement of paper PMC10307832

Assays:
Experiment in all cases: relative viability (nuclei count vs DMSO), 5 days (fraction); higher = more cells survive
Bosutinib + Pemetrexed = compound: COc1cc(Nc2c(C#N)cnc3cc(OCCCN4CCN(C)CC4)c(OC)cc23)c(Cl)cc1Cl [Bosutinib] + Nc1nc2[nH]cc(CCc3ccc(C(=O)N[C@@H](CCC(=O)O)C(=O)O)cc3)c2c(=O)[nH]1 [Pemetrexed] (partner 0.2 µM)
Summary of the method: (§1)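 Medians of duplicate plates are given as relative viability. That measure is the nuclei count in treated wells divided by the count in vehicle wells. Counts were taken on 4× images of lung cancer cell lines in 1536-well plates, 5 days after pin-tool dosing the day after seeding with one drug alone or a fixed anchor-drug dose plus five library-drug doses (not always all listed) in √10 steps.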

Bosutinib + Decitabine = compound: COc1cc(Nc2c(C#N)cnc3cc(OCCCN4CCN(C)CC4)c(OC)cc23)c(Cl)cc1Cl [Bosutinib] + Nc1ncn([C@H]2C[C@H](O)[C@@H](CO)O2)c(=O)n1 [Decitabine] (partner 2 µM)
Summary of the method: as §1

Bosutinib + Olaparib = compound: COc1cc(Nc2c(C#N)cnc3cc(OCCCN4CCN(C)CC4)c(OC)cc23)c(Cl)cc1Cl [Bosutinib] + O=C(c1cc(Cc2n[nH]c(=O)c3ccccc23)ccc1F)N1CCN(C(=O)C2CC2)CC1 [Olaparib] (partner 8 µM)
Summary of the method: as §1

Bosutinib + Vorinostat = compound: COc1cc(Nc2c(C#N)cnc3cc(OCCCN4CCN(C)CC4)c(OC)cc23)c(Cl)cc1Cl [Bosutinib] + O=C(CCCCCCC(=O)Nc1ccccc1)NO [Vorinostat] (partner 1 µM)
Summary of the method: as §1

Bosutinib + Alpelisib = compound: COc1cc(Nc2c(C#N)cnc3cc(OCCCN4CCN(C)CC4)c(OC)cc23)c(Cl)cc1Cl [Bosutinib] + Cc1nc(NC(=O)N2CCC[C@H]2C(N)=O)sc1-c1ccnc(C(C)(C)C(F)(F)F)c1 [Alpelisib] (partner 2 µM)
Summary of the method: as §1

Cell Line	relative viability (Bosutinib + Pemetrexed; first compound 0.01 µM)	relative viability (Bosutinib + Pemetrexed; first compound 0.03162 µM)	relative viability (Bosutinib + Pemetrexed; first compound 0.1 µM)	relative viability (Bosutinib + Pemetrexed; first compound 1 µM)	relative viability (Bosutinib + Decitabine; first compound 0.01 µM)	relative viability (Bosutinib + Decitabine; first compound 0.03162 µM)	relative viability (Bosutinib + Decitabine; first compound 0.1 µM)	relative viability (Bosutinib + Decitabine; first compound 1 µM)	relative viability (Bosutinib + Olaparib; first compound 0.01 µM)	relative viability (Bosutinib + Olaparib; first compound 0.03162 µM)	relative viability (Bosutinib + Olaparib; first compound 0.1 µM)	relative viability (Bosutinib + Olaparib; first compound 1 µM)	relative viability (Bosutinib + Vorinostat; first compound 0.01 µM)	relative viability (Bosutinib + Vorinostat; first compound 0.03162 µM)	relative viability (Bosutinib + Vorinostat; first compound 0.1 µM)	relative viability (Bosutinib + Vorinostat; first compound 1 µM)	relative viability (Bosutinib + Alpelisib; first compound 0.01 µM)	relative viability (Bosutinib + Alpelisib; first compound 0.03162 µM)	relative viability (Bosutinib + Alpelisib; first compound 0.1 µM)	relative viability (Bosutinib + Alpelisib; first compound 1 µM)
NCI-H1944	0.706	0.624	0.555	0.601	0.477	0.49	0.472	0.393	0.411	0.384	0.417	0.433	0.608	0.577	0.572	0.569	0.849	0.826	0.826	0.614
LC-2-ad	0.266	0.306	0.287	0.27	0.797	0.849	0.875	0.784	0.719	0.672	0.678	0.732	0.735	0.659	0.673	0.71	0.883	0.975	0.92	0.864
NCI-H358	0.152	0.163	0.18	0.163	0.211	0.213	0.209	0.218	0.566	0.579	0.572	0.366	0.634	0.697	0.548	0.483	0.862	0.817	0.771	0.585
NCI-H2170	0.261	0.262	0.251	0.26	0.429	0.465	0.463	0.457	0.529	0.571	0.539	0.499	0.882	0.832	0.891	0.774	0.821	0.866	0.797	0.711
A-427	1.01	1.07	1.02	1.01	0.596	0.56	0.617	0.612	0.73	0.764	0.742	0.68	0.87	0.888	0.833	0.846	1.03	1.11	1.03	0.978
NCI-H1666	0.827	0.888	0.833	0.912	0.63	0.868	0.72	0.802	0.713	0.701	0.756	0.794	0.99	0.99	1.12	1.22	0.982	0.947	1.07	0.865
LOU-NH91	0.394	0.395	0.378	0.4	0.818	0.834	0.765	0.653	0.889	0.868	0.898	0.697	0.903	0.922	0.92	0.819	0.807	0.7	0.638	0.46
ABC-1					1.21	1.22	0.997	0.807	0.531	0.964	0.743	0.46	1.18	1.08	1.32	1.14	0.938	0.944	0.897	0.731
